Source: US6410535B1, “Prophylactic or therapeutic agents for diseases having vascular dysfunction associated with insulin resistance” (Suntory Limited, priority 1998, dated 2002)
Counter-ions that a name gives are not always drawn.

Legend:
[1] = as reported in Japanese Patent Public Disclosure No. 25323/84; cited from earlier work
[2] = rat, in vivo, po
[3] = tested on: thoracic aorta tissue sections; experiment: Superoxide anion (O2−) production level in thoracic aorta tissue sections, lucigenin-enhanced chemiluminescence; format: in vivo, Sprague-Dawley rats; details: for O2− production level, Average: 10 mg BH4 dihydrochloride/kg/day oral, 8 weeks
Method: (§1) Male Sprague-Dawley rats (150 g, supplied from Charles River) were used to prepare a model group with insulin resistance induced by fructose feed loading (hereinafter referred to as “FR group”) according to the procedure described by Hwang et al. (Hwang, I-H. et al., Hypertension 10:512, 1987). A control group grown with a starch feed (hereinafter referred to as “CTR group”) was also prepared (FR group: n=16; CTR group: n=16). FR group received a feed containing 67% (hereinafter meaning % by weight) carbohydrate (containing 98% fructose available from Oriental Yeast Co., Ltd.), 13% fat and 20% protein, while CTR group received a feed containing 58% carbohydrate, 12% fat and […]. […] After 8 weeks, the thoracic aorta was collected. For each group, endothelium-separated sections (EC (−)) and non-separated sections (EC (+)) were prepared and examined for superoxide anion (O2^−) production level, endothelial NOS (eNOS) activity and endothelium-dependent vasorelaxation.
(§2) Group-to-group statistic analyses were made by one-way ANOVA, with the significance level being p<0.05. Multiple comparison was made by Bonferronl/Dunn, with the significance level being p<0.05.
Measurement of O2^− production level was made by the lucigenin-enhanced chemiluminescence method (Ohara et al., J. Clin. Invest. 91: 2546, 1993).

endothelial NOS (eNOS) = target: T1, endothelial NOS (eNOS) (Rattus norvegicus, UniProt Q62600); experiment: Endothelial NOS activity in thoracic aorta sections; format: in vivo, Sprague-Dawley rats; details: for eNOS activity, Average: 10 mg/kg/day oral, 8 weeks
T1 construct: After 8 weeks, the thoracic aorta was collected; from tissue; host or cells: thoracic aorta sections with endothelium (EC (+)) of Sprague-Dawley rats
Method: as §1, §2
Measurement of eNOS activity was made according to Rees, D. et al., Hypertension 28: 367, 1996.

thoracic aorta sections [4] = experiment: Endothelium-dependent vasorelaxation induced by acetylcholine, isometric tensiometry; format: in vivo, Sprague-Dawley rats; details: for Endothelium-dependent vasorelaxation induced by acetylcholine, Average / Endothelium-dependent vasorelaxation induced by acetylcholine, Average (TABLE 3): 10 mg/kg/day oral, 8 weeks; for Endothelium-dependent vasorelaxation induced by acetylcholine, Average: acetylcholine 10^−5 M, vs 10^−4 M papaverine; for Endothelium-dependent vasorelaxation induced by acetylcholine, Average (TABLE 3): repeat print of Table 3
Method: as §1, §2
Measurement of endothelium-dependent vasorelaxation was made by the isometric tensiometry (Toda, N. et al., Stroke 24: 1584, 1993) using ink-writing oscillographs (Nippon Kohden Corporation) and a force-displacement transducer (Nippon Kohden Corporation). Data were shown as % maximum relaxation vs. the maximum relaxation induced by 10^−4 M papaverine after aortic sections were partially precontracted with 1-3×10^−7 M 1-phenylephrine. Endothelium-dependent vasorelaxation induced by acetylcholine (10^−5M) and calcium ionophore (A23187, Sigma) (3×10^−7 M) in EC (+) of each of the 4 groups are shown in Tables 3 and 4, respectively.

thoracic aorta sections [5] = experiment: Endothelium-dependent vasorelaxation induced by calcium ionophore (A23187), isometric tensiometry; format: in vivo, Sprague-Dawley rats; details: FR group, EC (+), A23187 3×10^−7 M
Method: as §1
Group-to-group statistic analyses were made by one-way ANOVA, with the significance level being p<0.05. Multiple comparison was made by Bonferronl/Dunn, with the significance level being p<0.05. […]

[6] = CTR + BH4 group (starch feed), EC (+)
[7] = FR + BH4 group (fructose-fed, insulin resistant), EC (+)

SMILES: C[C@H](O)[C@H](O)C1CNc2nc(N)[nH]c(=O)c2N1 (stereo partly drawn) [(6R,S)-5,6,7,8-tetrahydrobiopterin]
- toxicity (in words) [1]: only slightly toxic

SMILES: CC(O)C(O)C1CNc2nc(N)[nH]c(=O)c2N1 [BH4 dihydrochloride, (6R)-L-erythro-5,6,7,8-tetrahydrobiopterin]
- acute toxicity [2]: ≥ 2 g/kg (body weight)

SMILES: CC(O)C(O)C1CNc2nc(N)[nH]c(=O)c2N1 [BH4, (6R)-L-erythro-5,6,7,8-tetrahydrobiopterin]
- O2− production level, Average [3, 6]: 189.3 100 cpm/mg dry weight
- change of O2− production level by BH4 administration (in words) ([3]; CTR group): any significant change was not observed
- O2− production level, difference among the 4 groups (in words) ([3]; EC (−) endothelium-separated sections): No significant difference
- O2− production level, Average [3, 7]: 118.0 100 cpm/mg dry weight
- change of O2− production level by BH4 administration (in words) ([3]; FR group, EC (+)): significantly (p<0.001) decreased
- eNOS activity, Average (endothelial NOS (eNOS); [6]): 57.0 pmol/min/mg protein
- change of eNOS activity by BH4 administration (in words) (endothelial NOS (eNOS); CTR group): any significant change was not observed
- eNOS activity, Average (endothelial NOS (eNOS); [7]): 60.2 pmol/min/mg protein
- change of eNOS activity by BH4 administration (in words) (endothelial NOS (eNOS); FR group, EC (+)): significantly (p<0.001) improved
- Endothelium-dependent vasorelaxation induced by acetylcholine, Average (thoracic aorta sections [4]; CTR + BH4 group, EC (+)): 92.9 % maximum relaxation
- Endothelium-dependent vasorelaxation induced by acetylcholine, Average (TABLE 3) (thoracic aorta sections [4]; CTR + BH4 group, EC (+)): 92.9 % maximum relaxation
- change of endothelium-dependent vasorelaxation by BH4 administration (in words) (thoracic aorta sections [4]; CTR group): any significant change was not observed
- Endothelium-dependent vasorelaxation induced by acetylcholine, Average (thoracic aorta sections [4]; FR + BH4 group, EC (+)): 82.6 % maximum relaxation
- Endothelium-dependent vasorelaxation induced by acetylcholine, Average (TABLE 3) (thoracic aorta sections [4]; FR + BH4 group, EC (+)): 82.6 % maximum relaxation
- change of acetylcholine-induced endothelium-dependent vasorelaxation by BH4 administration (in words) (thoracic aorta sections [4]; FR group, EC (+)): significantly (p<0.001) recovered
- change of calcium ionophore-induced endothelium-dependent vasorelaxation by BH4 administration (in words) (thoracic aorta sections [5]): significantly (p<0.001) recovered
